Target: T1, human mGlu 5a receptor (Homo sapiens, UniProt P41594)
T1 construct: expressed in transfected cells; host or cells: EBNA cells (transient transfection), cell membrane homogenates
Test: [3H]MPEP competition binding on membranes of EBNA cells transfected with human mGlu 5a receptor
Settings: competition with [3H]MPEP (2 nM), 1 h at 4° C., human mGlu 5a receptor membranes; read-out: Ki (mGluR5)
Protocol: The pharmacological activity of the compounds was tested using the following method: For binding experiments, cDNA encoding human mGlu 5a receptor was transiently transfected into EBNA cells using a procedure described by Schlaeger and Christensen [Cytotechnology 15:1-13 (1998)]. Cell membrane homogenates were stored at −80° C. until the day of assay where upon they were thawed and resuspended and polytronized in 15 mM Tris-HCl, 120 mM NaCl, 100 mM KCl, 25 mM CaCl2, 25 mM MgCl2 binding buffer at pH 7.4 to a final assay concentration of 20 μg protein/well.
Saturation isotherms were determined by addition of twelve [^3H]MPEP concentrations (0.04-100 nM) to these membranes (in a total volume of 200 μl) for 1 h at 4° C. Competition experiments were performed with a fixed concentration of [^3H]MPEP (2 nM), and IC50 values of test compounds evaluated using 11 concentrations (0.3-10,000 nM). Incubations were performed for 1 h at 4° C.
At the end of the incubation, membranes were filtered onto unifilter (96-well white microplate with bonded GF/C filter preincubated 1 h in 0.1% PEI in wash buffer, Packard Bio-Science, Meriden, Conn.) with a Filtermate 96 harvester (Packard BioScience) and washed 3 times with cold 50 mM Tris-HCl, pH 7.4 buffer. Nonspecific binding was measured in the presence of 10 μM MPEP. The radioactivity on the filter was counted (3 min) on a Packard Top-count microplate scintillation counter with quenching correction after addition of 45 μl of microscint 40 (Canberra Packard S. A., Zürich, Switzerland) and shaking for 20 min.
The inhibition (antagonists) curves were fitted with a four parameter logistic equation giving IC50, and Hill coefficient using iterative non linear curve fitting software (Xcel fit).
For binding experiments the Ki values of the compounds tested are given. The Ki value is defined by the following formula: Ki=IC50/[1+L/Kd] in which the IC50 values are those concentrations of the compounds tested which cause 50% inhibition of the competing radioligand ([^3H]MPEP). L is the concentration of radioligand used in the binding experiment and the Kd value of the radioligand is empirically determined for each batch of membranes prepared.

T1 sequence (P41594 21-1180 isoform P41594-2 limits assumed): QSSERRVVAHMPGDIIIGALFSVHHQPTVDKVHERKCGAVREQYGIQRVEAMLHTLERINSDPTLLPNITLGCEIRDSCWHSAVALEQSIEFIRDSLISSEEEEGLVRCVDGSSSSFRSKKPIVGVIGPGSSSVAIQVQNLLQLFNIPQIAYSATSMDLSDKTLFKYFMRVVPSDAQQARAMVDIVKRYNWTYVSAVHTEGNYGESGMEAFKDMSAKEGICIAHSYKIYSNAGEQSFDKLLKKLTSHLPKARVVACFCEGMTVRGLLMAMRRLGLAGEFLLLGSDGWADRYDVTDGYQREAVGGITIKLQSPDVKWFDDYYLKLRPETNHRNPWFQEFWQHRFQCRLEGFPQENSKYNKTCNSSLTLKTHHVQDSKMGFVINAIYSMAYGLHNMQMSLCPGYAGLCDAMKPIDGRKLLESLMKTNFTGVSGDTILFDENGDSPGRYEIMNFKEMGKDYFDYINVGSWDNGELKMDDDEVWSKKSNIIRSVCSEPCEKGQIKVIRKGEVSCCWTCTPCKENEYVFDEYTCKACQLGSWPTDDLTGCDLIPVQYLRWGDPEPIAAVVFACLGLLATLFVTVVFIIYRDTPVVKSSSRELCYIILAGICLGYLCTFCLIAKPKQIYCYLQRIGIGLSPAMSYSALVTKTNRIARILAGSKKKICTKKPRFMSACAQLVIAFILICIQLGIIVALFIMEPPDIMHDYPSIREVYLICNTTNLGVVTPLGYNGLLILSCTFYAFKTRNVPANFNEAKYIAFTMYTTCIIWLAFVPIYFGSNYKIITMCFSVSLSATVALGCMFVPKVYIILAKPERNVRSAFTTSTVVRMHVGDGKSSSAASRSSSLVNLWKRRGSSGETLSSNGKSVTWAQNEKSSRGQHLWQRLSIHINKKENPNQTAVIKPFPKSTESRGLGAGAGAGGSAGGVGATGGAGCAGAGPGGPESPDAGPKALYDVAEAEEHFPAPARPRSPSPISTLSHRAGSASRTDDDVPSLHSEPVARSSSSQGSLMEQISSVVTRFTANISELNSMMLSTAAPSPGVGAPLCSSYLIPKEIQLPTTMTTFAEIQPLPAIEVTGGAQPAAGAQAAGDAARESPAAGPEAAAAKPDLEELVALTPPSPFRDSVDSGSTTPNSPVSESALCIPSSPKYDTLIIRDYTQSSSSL

| Compound | Ki [nM] |
| --- | --- |
| 6-Methyl-3-(1-methyl-1H-pyrazol-4-ylamino)-pyridine-2-carboxylic acid (5-fluoro-pyridin-2-yl)-amide [Example 96] | 57 |
| Cc1ccc(Nc2cncnc2)c(C(=O)Nc2cccc(Cl)c2)n1 [Example 2, 6-Methyl-3-(pyrimidin-5-ylamino)-pyridine-2-carboxylic acid (3-chloro-phenyl)-amide] | 30 |
| Cc1ccc(Nc2cccnc2)c(C(=O)Nc2ccnc(Cl)c2)n1 [Example 4, 6-Methyl-3-(pyridin-3-ylamino)-pyridine-2-carboxylic acid (2-chloro-pyridin-4-yl)-amide] | 42 |
| Cc1ccc(Nc2cccnc2)c(C(=O)Nc2ccc(F)cn2)n1 [Example 8, 6-Methyl-3-(pyridin-3-ylamino)-pyridine-2-carboxylic acid (5-fluoro-pyridin-2-yl)-amide] | 21 |
| Cc1csc(NC(=O)c2nc(C)ccc2Nc2cccnc2)n1 [Example 14, 6-Methyl-3-(pyridin-3-ylamino)-pyridine-2-carboxylic acid (4-methyl-thiazol-2-yl)-amide] | 28 |
| Cc1ccc(Nc2cccnc2)c(C(=O)Nc2ccn(C)n2)n1 [Example 16, 6-Methyl-3-(pyridin-3-ylamino)-pyridine-2-carboxylic acid (1-methyl-1H-pyrazol-3-yl)-amide] | 27 |
| Cc1ccc(Nc2cccnc2)c(C(=O)Nc2nc(C(F)(F)F)cs2)n1 [Example 18, 6-Methyl-3-(pyridin-3-ylamino)-pyridine-2-carboxylic acid (4-trifluoromethyl-thiazol-2-yl)-amide] | 78 |
| Cc1cc(NC(=O)c2nc(C)ccc2Nc2cncc(C#N)c2)ccn1 [Example 22, 3-(5-Cyano-pyridin-3-ylamino)-6-methyl-pyridine-2-carboxylic acid (2-methyl-pyridin-4-yl)-amide] | 66 |
| Cc1ccc(Nc2cncc(C(F)(F)F)c2)c(C(=O)Nc2ccn(C)n2)n1 [Example 51, 6-Methyl-3-(5-trifluoromethyl-pyridin-3-ylamino)-pyridine-2-carboxylic acid (1-methyl-1H-pyrazol-3-yl)-amide] | 82 |
| Cc1ccc(Nc2cccc(F)c2)c(C(=O)Nc2ccc(F)c(C)n2)n1 [Example 54, 3-(3-Fluoro-phenylamino)-6-methyl-pyridine-2-carboxylic acid (5-fluoro-6-methyl-pyridin-2-yl)-amide] | 55 |
| Cc1ccc(Nc2cccc(C#N)c2)c(C(=O)Nc2nc(C(F)(F)F)cs2)n1 [Example 60, 3-(3-Cyano-phenylamino)-6-methyl-pyridine-2-carboxylic acid (4-trifluoromethyl-thiazol-2-yl)-amide] | 367 |
| Cc1ccc(Nc2ccnn2C)c(C(=O)Nc2csc(C)n2)n1 [Example 92, 6-Methyl-3-(2-methyl-2H-pyrazol-3-ylamino)-pyridine-2-carboxylic acid (2-methyl-thiazol-4-yl)-amide] | 10 |
| Cc1ccc(Nc2cc(C3CC3)nn2C)c(C(=O)Nc2ccc(F)c(C)n2)n1 [Example 103, 3-(5-Cyclopropyl-2-methyl-2H-pyrazol-3-ylamino)-6-methyl-pyridine-2-carboxylic acid (5-fluoro-6-methyl-pyridin-2-yl)-amide] | 14 |
| Cc1ccc(Nc2cncnc2)c(C(=O)Nc2ncc(C)s2)n1 [Example 106, 6-Methyl-3-(pyrimidin-5-ylamino)-pyridine-2-carboxylic acid (5-methyl-thiazol-2-yl)-amide] | 56 |

— US7414060B2, “Pyridine-2-carboxyamide derivatives” (Hoffmann-La Roche Inc., priority 2005, dated 2008)
